Data from patent publication US6737383B1, “Herbicidal oxadiazolidines” (priority 1999, dated 2004).

Legend:
velvetleaf = assay: Test B pre/postemergence velvetleaf; format: in vivo, Abutilon theophrasti
Procedure, shortened: (§1)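 Test chemicals in a non-phytotoxic solvent mixture with surfactant were sprayed preemergence onto planted seeds and postemergence onto plants 2 to 18 cm tall (1- to 4-leaf stage). After twelve to sixteen days in a greenhouse, injury was visually rated against untreated controls from 0 (no effect) to 10 (complete control).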

blackgrass = assay: Test B pre/postemergence blackgrass; format: in vivo, Alopecurus myosuroides; details: scale of 0 to 10 where 0 is no effect and 10 is complete control
Procedure, shortened: as §1

surinam grass = assay: Test B pre/postemergence surinam grass; format: in vivo, Brachiaria decumbens; details: scale of 0 to 10 where 0 is no effect and 10 is complete control
Procedure, shortened: as §1

bamyardgrass = assay: Test B flood test barnyardgrass; format: in vivo, Echinochloa crus-galli
Procedure, shortened: (§2)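 Each value is a visual injury score relative to controls, with 10 meaning complete control and 0 no effect. Evaluation took place twelve to sixteen days after the 2-leaf-stage plants were treated and kept in the greenhouse.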

smallflower flatsedge = assay: Test B flood test smallflower flatsedge; format: in vivo, Cyperus difformis
Procedure, shortened: as §2

giant foxtail = assay: Test B pre/postemergence giant foxtail; format: in vivo, Setaria faberii
Procedure, shortened: as §1

wheat = assay: Test B pre/postemergence wheat; format: in vivo, Triticum aestivum; details: scale of 0 to 10 where 0 is no effect and 10 is complete control
Procedure, shortened: as §1

corn = assay: Test B pre/postemergence corn; format: in vivo, Zea mays
Procedure, shortened: as §1

rape = assay: Test B pre/postemergence rape; format: in vivo, Brassica napus; details: scale of 0 to 10 where 0 is no effect and 10 is complete control
Procedure, shortened: as §1

duck salad = assay: Test B flood test duck salad; format: in vivo, Heteranthera limosa
Procedure, shortened: as §2

crabgrass = assay: Test B pre/postemergence crabgrass; format: in vivo, Digitaria sanguinalis
Procedure, shortened: as §1

rice = assay: Test B flood test rice; format: in vivo, Oryza sativa
Procedure, shortened: as §2

sugar beet = assay: Test B pre/postemergence sugar beet; format: in vivo, Beta vulgaris; details: scale of 0 to 10 where 0 is no effect and 10 is complete control
Procedure, shortened: as §1

purple nutsedge = assay: Test B pre/postemergence purple nutsedge; format: in vivo, Cyperus rotundus
Procedure, shortened: as §1

bedstraw = assay: Test B pre/postemergence bedstraw; format: in vivo, Galium aparine; details: scale of 0 to 10 where 0 is no effect and 10 is complete control
Procedure, shortened: as §1

wild oat = assay: Test B pre/postemergence wild oat; format: in vivo, Avena fatua; details: scale of 0 to 10 where 0 is no effect and 10 is complete control
Procedure, shortened: as §1

[1] = Preemergence, Rate 62 g/ha, scale of 0 to 10 where 0 is no effect and 10 is complete control
[2] = Preemergence, Rate 250 g/ha, scale of 0 to 10 where 0 is no effect and 10 is complete control
[3] = Preemergence, Rate 500 g/ha, scale of 0 to 10 where 0 is no effect and 10 is complete control
[4] = Rate 125 g/ha, Postemergence, scale of 0 to 10 where 0 is no effect and 10 is complete control
[5] = Rate 125 g/ha, Preemergence, scale of 0 to 10 where 0 is no effect and 10 is complete control
[6] = Rate 250 g/ha, Postemergence, scale of 0 to 10 where 0 is no effect and 10 is complete control
[7] = Rate 500 g/ha, Postemergence, scale 0 to 10, 0 no effect, 10 complete control
[8] = Rate 62 g/ha, headed Pre-emergence (flood test species), scale 0 to 10 (0 no effect, 10 complete control)
[9] = Rate 125 g/ha, Pre-emergence, flood test species, scale 0 to 10 where 0 is no effect and 10 is complete control
[10] = Rate 250 g/ha, Pre-emergence, flood-test species, scale 0 to 10, 0 is no effect, 10 is complete control
[11] = Rate 500 g/ha, Pre-emergence, flood test species, scale 0 to 10 (0 no effect, 10 complete control)

## Cc1ccccc1-n1c(=O)on(C(=O)N(c2ccc(Oc3ccccc3)cc2)C(C)C)c1=O [Compound 268]
velvetleaf; [1]
  Velvetleaf plant response rating: 0
velvetleaf; [2]
  Velvetleaf plant response rating: 0
velvetleaf; [3]
  Plant response rating, Velvetleaf: 0
velvetleaf; [4]
  Velvetleaf plant response rating: 0
velvetleaf; [5]
  Velvetleaf plant response rating: 0
velvetleaf; [6]
  Plant response rating, Velvetleaf: 0
velvetleaf; [7]
  Velvetleaf plant response rating: 0
blackgrass; Preemergence, Rate 62 g/ha
  Blackgrass plant response rating: 0
blackgrass; Preemergence, Rate 250 g/ha
  Blackgrass plant response rating: 0
blackgrass; Preemergence, Rate 500 g/ha
  Plant response rating, Blackgrass: 0
blackgrass; Rate 62 g/ha, Postemergence
  Blackgrass plant response rating: 0
blackgrass; Rate 125 g/ha, Postemergence
  Blackgrass plant response rating: 0
blackgrass; Rate 125 g/ha, Preemergence
  Blackgrass plant response rating: 0
blackgrass; Rate 250 g/ha, Postemergence
  Plant response rating, Blackgrass: 0
Surinam grass; Preemergence, Rate 62 g/ha
  B. signalgrass plant response rating: 0
Surinam grass; Preemergence, Rate 250 g/ha
  B. signalgrass plant response rating: 0
Surinam grass; Preemergence, Rate 500 g/ha
  Plant response rating, B. signalgrass: 0
Surinam grass; Rate 62 g/ha, Postemergence
  B. signalgrass plant response rating: 0
Surinam grass; Rate 125 g/ha, Postemergence
  B. signalgrass plant response rating: 0
Surinam grass; Rate 125 g/ha, Preemergence
  B. signalgrass plant response rating: 0
Surinam grass; Rate 250 g/ha, Postemergence
  Plant response rating, B. signalgrass: 0
bamyardgrass; [8]
  Barnyardgrass plant response rating: 0
bamyardgrass; [9]
  Barnyardgrass plant response rating: 0
bamyardgrass; [10]
  Barnyardgrass plant response rating: 0
bamyardgrass; [11]
  Barnyardgrass plant response rating: 0
Smallflower flatsedge; [8]
  S. Flatsedge plant response rating: 0
Smallflower flatsedge; [9]
  S. Flatsedge plant response rating: 0
Smallflower flatsedge; [10]
  S. Flatsedge plant response rating: 0
Smallflower flatsedge; [11]
  S. Flatsedge plant response rating: 0
Giant foxtail; [1]
  Giant foxtail plant response rating: 0
Giant foxtail; [2]
  Giant foxtail plant response rating: 0
Giant foxtail; [3]
  Plant response rating, Giant foxtail: 0
Giant foxtail; [4]
  Giant foxtail plant response rating: 0
Giant foxtail; [5]
  Giant foxtail plant response rating: 0
Giant foxtail; [6]
  Plant response rating, Giant foxtail: 0
Giant foxtail; [7]
  Giant foxtail plant response rating: 0
wheat; Preemergence, Rate 62 g/ha
  Wheat plant response rating: 0
wheat; Preemergence, Rate 250 g/ha
  Wheat plant response rating: 0
wheat; Preemergence, Rate 500 g/ha
  Plant response rating, Wheat: 0
wheat; Rate 125 g/ha, Postemergence
  Wheat plant response rating: 0
wheat; Rate 125 g/ha, Preemergence
  Wheat plant response rating: 0
wheat; Rate 250 g/ha, Postemergence
  Plant response rating, Wheat: 0
corn; [1]
  Corn plant response rating: 0
corn; [2]
  Corn plant response rating: 0
corn; [3]
  Plant response rating, Corn: 0
corn; Rate 62 g/ha, Postemergence, scale of 0 to 10 where 0 is no effect and 10 is complete control
  Corn plant response rating: 0
corn; [4]
  Corn plant response rating: 0
corn; [5]
  Corn plant response rating: 0
corn; [6]
  Plant response rating, Corn: 0
corn; [7]
  Corn plant response rating: 3
rape; Preemergence, Rate 62 g/ha
  Rape plant response rating: 0
rape; Preemergence, Rate 250 g/ha
  Rape plant response rating: 0
rape; Preemergence, Rate 500 g/ha
  Plant response rating, Rape: 0
rape; Rate 125 g/ha, Postemergence
  Rape plant response rating: 0
rape; Rate 125 g/ha, Preemergence
  Rape plant response rating: 0
rape; Rate 250 g/ha, Postemergence
  Plant response rating, Rape: 0
Duck salad; [8]
  Ducksalad plant response rating: 0
Duck salad; [9]
  Ducksalad plant response rating: 0
Duck salad; [10]
  Ducksalad plant response rating: 0
Duck salad; [11]
  Ducksalad plant response rating: 0
crabgrass; [1]
  Crabgrass plant response rating: 0
crabgrass; [2]
  Crabgrass plant response rating: 0
crabgrass; [3]
  Plant response rating, Crabgrass: 0
crabgrass; [4]
  Crabgrass plant response rating: 0
crabgrass; [5]
  Crabgrass plant response rating: 0
crabgrass; [6]
  Plant response rating, Crabgrass: 0
crabgrass; [7]
  Crabgrass plant response rating: 0
rice; [8]
  Rice plant response rating: 0
rice; [9]
  Rice plant response rating: 0
rice; [10]
  Rice plant response rating: 0
rice; [11]
  Rice plant response rating: 0
Sugar beet; Preemergence, Rate 62 g/ha
  Sugarbeets plant response rating: 0
Sugar beet; Preemergence, Rate 250 g/ha
  Sugarbeets plant response rating: 0
Sugar beet; Preemergence, Rate 500 g/ha
  Plant response rating, Sugarbeets: 0
Sugar beet; Rate 125 g/ha, Postemergence
  Sugarbeets plant response rating: 0
Sugar beet; Rate 125 g/ha, Preemergence
  Sugarbeets plant response rating: 0
Sugar beet; Rate 250 g/ha, Postemergence
  Plant response rating, Sugarbeets: 0
Purple nutsedge; [1]
  Nutsedge plant response rating: 0
Purple nutsedge; [2]
  Nutsedge plant response rating: 0
Purple nutsedge; [4]
  Nutsedge plant response rating: 0
Purple nutsedge; [5]
  Nutsedge plant response rating: 0
Purple nutsedge; [6]
  Plant response rating, Nutsedge: 0
Purple nutsedge; [7]
  Nutsedge plant response rating: 0
bedstraw; Preemergence, Rate 62 g/ha
  Bedstraw plant response rating: 0
bedstraw; Preemergence, Rate 250 g/ha
  Bedstraw plant response rating: 0
bedstraw; Preemergence, Rate 500 g/ha
  Plant response rating, Bedstraw: 0
bedstraw; Rate 62 g/ha, Postemergence
  Bedstraw plant response rating: 0
bedstraw; Rate 125 g/ha, Postemergence
  Bedstraw plant response rating: 0
bedstraw; Rate 125 g/ha, Preemergence
  Bedstraw plant response rating: 0
bedstraw; Rate 250 g/ha, Postemergence
  Plant response rating, Bedstraw: 0
Wild oat; Preemergence, Rate 62 g/ha
  Wild oats plant response rating: 0
Wild oat; Preemergence, Rate 250 g/ha
  Wild oats plant response rating: 0
Wild oat; Preemergence, Rate 500 g/ha
  Plant response rating, Wild oats: 0
Wild oat; Rate 125 g/ha, Postemergence
  Wild oats plant response rating: 0
Wild oat; Rate 250 g/ha, Postemergence
  Plant response rating, Wild oats: 0
